# Like-named read-outs stand apart in the source and are kept apart here.
# Molecular target: S. aureus GyrB ATPase (Staphylococcus aureus, UniProt P0A0K8)
# Assay: S. aureus (SAU) GyrB ATPase inhibition, malachite green phosphate detection (E. coli GyrA + S. aureus GyrB)
# Assay type: biochemical
# Details: read-out: S. aureus (SAU) GyrB ATPase % Inhibition
# Summary of the method: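 E. coli GyrA and S. aureus GyrB (1.25 nM each) with 500 μM ATP and 5 μg/ml sheared salmon sperm DNA in 50 mM Hepes pH 7.5, 8.0 mM MgCl2. Released phosphate detected with ammonium molybdate/malachite green at 650 nm; 2% DMSO as 0% and 2 μM novobiocin as 100% inhibition; IC50 from 10 concentrations.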
# [1] = compound concentration of 1.0 μM unless otherwise noted, average value where assay was carried out more than once
# Sequence of S. aureus GyrB ATPase (P0A0K8 whole entry): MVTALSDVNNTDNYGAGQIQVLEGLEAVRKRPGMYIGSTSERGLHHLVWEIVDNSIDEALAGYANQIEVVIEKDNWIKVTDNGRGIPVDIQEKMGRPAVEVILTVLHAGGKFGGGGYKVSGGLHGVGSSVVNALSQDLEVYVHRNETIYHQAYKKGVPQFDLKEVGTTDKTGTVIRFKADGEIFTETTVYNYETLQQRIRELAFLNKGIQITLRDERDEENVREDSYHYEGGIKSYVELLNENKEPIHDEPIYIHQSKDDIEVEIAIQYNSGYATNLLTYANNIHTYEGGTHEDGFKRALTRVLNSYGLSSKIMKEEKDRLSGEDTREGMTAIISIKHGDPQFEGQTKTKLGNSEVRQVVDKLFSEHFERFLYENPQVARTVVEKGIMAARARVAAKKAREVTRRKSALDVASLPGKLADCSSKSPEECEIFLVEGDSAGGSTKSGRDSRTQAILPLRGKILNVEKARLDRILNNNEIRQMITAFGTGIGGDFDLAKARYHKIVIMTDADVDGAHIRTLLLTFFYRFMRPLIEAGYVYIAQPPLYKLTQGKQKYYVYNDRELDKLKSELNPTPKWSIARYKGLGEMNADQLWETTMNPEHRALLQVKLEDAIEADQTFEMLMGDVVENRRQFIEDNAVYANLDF
# Sequence of S. aureus GyrB ATPase (P0AES4 whole entry, further chain): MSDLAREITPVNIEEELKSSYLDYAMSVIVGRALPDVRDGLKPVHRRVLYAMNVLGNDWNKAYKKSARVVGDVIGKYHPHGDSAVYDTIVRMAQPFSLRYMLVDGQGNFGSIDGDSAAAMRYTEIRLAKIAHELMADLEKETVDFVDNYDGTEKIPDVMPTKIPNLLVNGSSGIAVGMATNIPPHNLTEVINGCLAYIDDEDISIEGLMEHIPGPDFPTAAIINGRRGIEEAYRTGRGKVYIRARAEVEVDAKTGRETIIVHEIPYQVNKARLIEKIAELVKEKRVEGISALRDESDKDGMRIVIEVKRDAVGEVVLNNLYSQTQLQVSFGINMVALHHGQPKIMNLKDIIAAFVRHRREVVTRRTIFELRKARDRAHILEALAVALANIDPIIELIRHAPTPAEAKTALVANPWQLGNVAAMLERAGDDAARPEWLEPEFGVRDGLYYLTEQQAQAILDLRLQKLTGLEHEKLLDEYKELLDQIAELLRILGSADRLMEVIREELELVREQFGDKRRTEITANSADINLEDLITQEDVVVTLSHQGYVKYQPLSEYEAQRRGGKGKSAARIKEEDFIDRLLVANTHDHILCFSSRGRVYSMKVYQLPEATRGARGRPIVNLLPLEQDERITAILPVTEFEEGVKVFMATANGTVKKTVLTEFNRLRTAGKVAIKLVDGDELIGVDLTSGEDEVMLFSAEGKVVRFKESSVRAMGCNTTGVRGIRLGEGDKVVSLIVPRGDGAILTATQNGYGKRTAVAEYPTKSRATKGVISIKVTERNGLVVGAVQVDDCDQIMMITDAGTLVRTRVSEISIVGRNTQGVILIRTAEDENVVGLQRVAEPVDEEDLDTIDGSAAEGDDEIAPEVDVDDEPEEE
SMILES,inhibition at 1 µM [1],inhibition at 1 µM
"CCNC(=O)Nc1cc(-c2nc(C3CCCC3)cs2)c(-c2cncc(-c3nnc(C)o3)c2)cn1 [Example 235, 1-(4-(4-cyclopentylthiazol-2-yl)-5′-(5-methyl-1,3,4-oxadiazol-2-yl)-3,3′-bipyridin-6-yl)-3-ethylurea]",101%,–
"CCNC(=O)Nc1cc(-c2nc(C(F)(F)F)cs2)c(-c2nc(C)cc(-c3n[nH]c(=O)o3)n2)cn1 [Example 34, 1-ethyl-3-(5-(4-methyl-6-(5-oxo-4,5-dihydro-1,3,4-oxadiazol-2-yl)pyrimidin-2-yl)-4-(4-(trifluoromethyl)thiazol-2-yl)pyridin-2-yl)urea]",93%,–
CCNC(=O)Nc1cc(-c2nc(C(F)(F)F)cs2)c(-c2nc(-c3n[nH]c(=O)o3)cs2)cn1 [Example 188],97%,–
"CCNC(=O)Nc1cc(-c2nc(C(F)(F)F)cs2)c(-c2cncc(-c3nnc(C(C)(C)OC(C)=O)o3)c2)cn1 [Example 264, 2-(5-(6′-(3-ethylureido)-4′-(4-(trifluoromethyl)thiazol-2-yl)-3,3′-bipyridin-5-yl)-1,3,4-oxadiazol-2-yl)propan-2-yl acetate]",98%,–
"CCNC(=O)Nc1cc(-c2nc(C(F)(F)F)cs2)c(-c2cc(-c3nnc(C)o3)nc(N3CCOCC3)c2)cn1 [Example 87, 1-ethyl-3-(2′-morpholino-6′-(5-methyl-1,3,4-oxadiazol-2-yl)-4-(4-(trifluoromethyl)thiazol-2-yl)-3,4′-bipyridin-6-yl)urea]",99%,–
"CCNC(=O)Nc1cc(-c2nc(C(F)(F)F)cs2)c(-c2cncc(C(=N)N)c2)cn1 [Example 164, 6′-(3-Ethylureido)-4′-(4-(trifluoromethyl)thiazol-2-yl)-3,3′-bipyridine-5-carboximidamide]",96%,–
CCNC(=O)Nc1cc(-c2nc(C3CCCC3)cs2)c(-c2cncc(-c3n[nH]c(=O)o3)c2)cn1 [Example 209],95%,–
"CCNC(=O)Nc1cc(-c2nc(C(F)(F)F)cs2)c(-c2cncc(-c3nnc(C(C)C)s3)c2)cn1 [Example 5, 1-Ethyl-3-(5′-(5-isopropyl-1,3,4-thiadiazol-2-yl)-4-(4-(trifluoromethyl)thiazol-2-yl)-3,3′-bipyridin-6-yl)urea]",112%,–
"CCNC(=O)Nc1cc(-c2nc(C(F)(F)F)cs2)c(-c2cnc(N)c(-c3nnc(C)o3)c2)cn1 [Example 258, 1-(6′-amino-5′-(5-methyl-1,3,4-oxadiazol-2-yl)-4-(4-(trifluoromethyl)thiazol-2-yl)-3,3′-bipyridin-6-yl)-3-ethylurea]",96%,–
"CCNC(=O)Nc1cc(-c2nc(C(F)(F)F)cs2)c(-c2cc(OC(C)C)nc(-c3nnc(C)o3)c2)cn1 [Example 80, 1-ethyl-3-(2′-isopropoxy-6′-(5-methyl-1,3,4-oxadiazol-2-yl)-4-(4-(trifluoromethyl)thiazol-2-yl)-3,4′-bipyridin-6-yl)urea]",96%,–
"CCNC(=O)Nc1cc(-c2nc(-c3cccc(OC)n3)cs2)c(-c2cncc(-c3nnc(C)o3)c2)cn1 [Example 250, 1-ethyl-3-(4-(4-(6-methoxypyridin-2-yl)thiazol-2-yl)-5′-(5-methyl-1,3,4-oxadiazol-2-yl)-3,3′-bipyridin-6-yl)urea]",101%,–
"CCNC(=O)Nc1cc(-c2nc(C(F)(F)F)cs2)c(-c2cncc(-c3nnc(C4(O)CC4)o3)c2)cn1 [Example 273, 1-ethyl-3-(5′-(5-(1-hydroxycyclopropyl)-1,3,4-oxadiazol-2-yl)-4-(4-(trifluoromethyl)thiazol-2-yl)-3,3′-bipyridin-6-yl)urea]",98%,–
CCNC(=O)Nc1cc(-c2nc(-c3cnn(C)c3)cs2)c(-c2cnc(OC)c(-c3n[nH]c(=O)o3)c2)cn1 [Example 205],100%,–
CCNC(=O)Nc1cc(-c2nc(C(F)(F)F)cs2)c(-c2cc(-c3n[nH]c(=O)o3)cnc2OC2CCOCC2)cn1 [Example 187],100%,–
"CCNC(=O)Nc1cc(-c2nc(C(F)(F)F)cs2)c(-c2ncc(-c3n[nH]c(=O)o3)s2)cn1 [Example 9, 1-ethyl-3-(5-(5-(5-oxo-4,5-dihydro-1,3,4-oxadiazol-2-yl)thiazol-2-yl)-4-(4-(trifluoromethyl)thiazol-2-yl)pyridin-2-yl)urea]",106%,–
"CCNC(=O)Nc1cc(-c2nc(-c3cccnc3OCCOC)cs2)c(-c2cc(-c3nnc(C)o3)cnc2OC2CCOCC2)cn1 [Example 232, 1-ethyl-3-(4-(4-(2-(2-methoxyethoxy)pyridin-3-yl)thiazol-2-yl)-5′-(5-methyl-1,3,4-oxadiazol-2-yl)-2′-(tetrahydro-2H-pyran-4-yloxy)-3,3′-bipyridin-6-yl)urea]",99%,–
"CCNC(=O)Nc1cc(-c2nc(C(F)(F)F)cs2)c(-c2cncc(C#N)c2)cn1 [Example 2, 1-(5′-cyano-4-(4-(trifluoromethyl)thiazol-2-yl)-3,3′-bipyridin-6-yl)-3-ethylurea]",–,88%
"CCNC(=O)Nc1cc(-c2nc(C(F)(F)F)c(C(=O)NCCN3CCOCC3)s2)c(-c2cncc(-c3nnc(C)o3)c2)cn1 [Example 62, 2-(6-(3-ethylureido)-5′-(5-methyl-1,3,4-oxadiazol-2-yl)-3,3′-bipyridin-4-yl)-N-(2-morpholinoethyl)-4-(trifluoromethyl)thiazole-5-carboxamide]",86%,–

SMILES,inhibition at 1 µM [1],inhibition at 1 µM
"CCNC(=O)Nc1cc(-c2nc(C(F)(F)F)cs2)c(-c2cncc(-c3nnc(C4CC4)o3)c2)cn1 [Example 166, 1-(5′-(5-Cyclopropyl-1,3,4-oxadiazol-2-yl)-4-(4-(trifluoromethyl)thiazol-2-yl)-3,3′-bipyridin-6-yl)-3-ethylurea]",72%,–
CCNC(=O)Nc1cc(-c2nc(-c3ccccc3)cs2)c(-c2nc(-c3ncnn3C)c(-c3n[nH]c(=O)o3)s2)cn1 [Example 200],93%,–
"CCNC(=O)Nc1cc(-c2nc(C(F)(F)F)cs2)c(-c2cncc(-c3n[nH]c(=O)o3)n2)cn1 [Example 35, 1-ethyl-3-(5-(6-(5-oxo-4,5-dihydro-1,3,4-oxadiazol-2-yl)pyrazin-2-yl)-4-(4-(trifluoromethyl)thiazol-2-yl)pyridin-2-yl)urea]",103%,–
CCNC(=O)Nc1cc(-c2nc(C(F)(F)F)cs2)c(-c2cncc(-c3nnc(N4CC(O)C4)o3)c2)cn1 [Example 182],99%,–
CCNC(=O)Nc1cc(-c2nc(C(F)(F)F)cs2)c(-c2ccnc(-c3nnc(C)o3)c2)cn1 [Example 228],93%,–
"CCNC(=O)Nc1cc(-c2nc(C(F)(F)F)cs2)c(-c2cncc(-c3nnc(C(C)O)o3)c2)cn1 (centres unmarked) [Example 275, 1-ethyl-3-(5′-(5-(1-hydroxyethyl)-1,3,4-oxadiazol-2-yl)-4-(4-(trifluoromethyl)thiazol-2-yl)-3,3′-bipyridin-6-yl)urea]",98%,–
"CCNC(=O)Nc1cc(-c2nc(C(F)(F)F)cs2)c(-c2cc(-c3nnc(C)o3)cnc2OC2CC(C)(C)N(C)C(C)(C)C2)cn1 [Example 117, 1-Ethyl-3-(5′-(5-methyl-1,3,4-oxadiazol-2-yl)-2′-(1,2,2,6,6-pentamethylpiperidin-4-yloxy)-4-(4-(trifluoromethyl)thiazol-2-yl)-3,3′-bipyridin-6-yl)urea]",105%,–
"CCNC(=O)Nc1cc(-c2nc(C(F)(F)F)cs2)c(-c2cncc(C3=NCCO3)c2)cn1 [Example 26, 1-(5′-(4,5-Dihydrooxazol-2-yl)-4-(4-(trifluoromethyl)thiazol-2-yl)-3,3′-bipyridin-6-yl)-3-ethylurea]",105%,–
"CCNC(=O)Nc1cc(-c2nc(C(F)(F)F)cs2)c(-c2cncc(S(N)(=O)=O)c2)cn1 [Example 23, 6′-(3-Ethylureido)-4′-(4-(trifluoromethyl)thiazol-2-yl)-3,3′-bipyridine-5-sulfonamide]",110%,–
"CCNC(=O)Nc1cc(-c2nc(C(F)(F)F)cs2)c(-c2cc(OCC3CC3)nc(-c3n[nH]c(=O)o3)c2)cn1 [Example 83, 1-(2′-(cyclopropylmethoxy)-6′-(5-oxo-4,5-dihydro-1,3,4-oxadiazol-2-yl)-4-(4-(trifluoromethyl)thiazol-2-yl)-3,4′-bipyridin-6-yl)-3-ethylurea]",94%,–
"CCCNC(=O)Nc1cc(-c2nc(C(F)(F)F)cs2)c(-c2cncc(-c3n[nH]c(=O)o3)c2)cn1 [Example 44, 1-(5′-(5-oxo-4,5-dihydro-1,3,4-oxadiazol-2-yl)-4-(4-(trifluoromethyl)thiazol-2-yl)-3,3′-bipyridin-6-yl)-3-propylurea]",96%,–
"CCCNC(=O)Nc1cc(-c2nc(C(F)(F)F)cs2)c(-c2cc(-c3nnc(C)o3)cnc2OCCN(C(C)C)C(C)C)cn1 [Example 123, 1-(2′-(2-(Diisopropylamino)ethoxy)-5′-(5-methyl-1,3,4-oxadiazol-2-yl)-4-(4-(trifluoromethyl)thiazol-2-yl)-3,3′-bipyridin-6-yl)-3-propylurea]",78%,–
CCNC(=O)Nc1cc(-c2nc(C(F)(F)F)cs2)c(-c2cncc(-c3nnc(N4CCOCC4)o3)c2)cn1 [Example 154],105%,–
CCNC(=O)Nc1cc(-c2nc(-c3cccnc3OCCOC)cs2)c(-c2cnc(OC)c(-c3n[nH]c(=O)o3)c2)cn1 [Example 207],101%,–
"CCNC(=O)Nc1cc(-c2nc(C(F)(F)F)cs2)c(-c2cncc(C3=NNC(=O)CO3)c2)cn1 [Example 282, 1-ethyl-3-(5′-(5-oxo-5,6-dihydro-4H-1,3,4-oxadiazin-2-yl)-4-(4-(trifluoromethyl)thiazol-2-yl)-3,3′-bipyridin-6-yl)urea]",96%,–
CCNC(=O)Nc1cc(-c2sc(C)nc2C)c(-c2cncc(-c3n[nH]c(=O)o3)c2)cn1 [Example 147],95%,–
CCNC(=O)Nc1cc(-c2nc(C(F)(F)F)cs2)c(-c2cncc(-c3nnc(N4CC[C@@H](O)C4)o3)c2)cn1 [Example 178],97%,–
